Reference: PubChem BioAssay AID248 (DTP/NCI, 2004)
Toxic doses and inconclusive results are not listed. Rule as the data show it: active = T/C of 150% or more; inactive = T/C below 125%.

System: L1210 leukemia ip in BDF1 mice, survival T/C
Experiment: NCI In Vivo Anticancer Drug Screen. Data for tumor model L1210 Leukemia (intraperitoneal) in B6D2F1 (BDF1) mice
Details: endpoint: mean survival time, higher = longer survival
In short: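 Survival endpoint. Drug-treated group vs vehicle group, expressed as T divided by C. Tumor passaged by transplantation.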

Measured: T/C

CC1(C#N)CC(C)(C)C(=O)N1 (centres undefined)
inactive: dose: 75.0 mg/kg/injection, schedule: Q01DX001 (ip), vehicle: saline 102 % of control | dose: 150.0 mg/kg/injection, schedule: Q01DX001 (ip), vehicle: saline 102 % of control | dose: 300.0 mg/kg/injection, schedule: Q01DX001 (ip), vehicle: saline 108 % of control

OCCCCCCCCCCCO
inactive: dose: 100.0 mg/kg/injection, schedule: Q04DX003 (ip), vehicle: saline 100 % of control | dose: 200.0 mg/kg/injection, schedule: Q04DX003 (ip), vehicle: saline 93 % of control | dose: 400.0 mg/kg/injection, schedule: Q04DX003 (ip), vehicle: saline 93 % of control

NC(=O)N/N=C1\CC2CC1C1C=CCC21 (centres undefined)
inactive: dose: 50.0 mg/kg/injection, schedule: Q01DX001 (ip), vehicle: carboxymethylcellulose (CMC) 102 % of control | dose: 100.0 mg/kg/injection, schedule: Q01DX001 (ip), vehicle: carboxymethylcellulose (CMC) 93 % of control | dose: 200.0 mg/kg/injection, schedule: Q01DX001 (ip), vehicle: carboxymethylcellulose (CMC) 102 % of control

c1ccc(C2OCC3OC(c4ccccc4)OC(C4SCCS4)C3O2)cc1 (centres undefined)
inactive: dose: 100.0 mg/kg/injection, schedule: Q01DX001 (ip), vehicle: gum acacia 92 % of control | dose: 200.0 mg/kg/injection, schedule: Q01DX001 (ip), vehicle: gum acacia 93 % of control | dose: 400.0 mg/kg/injection, schedule: Q01DX001 (ip), vehicle: gum acacia 93 % of control

CCCNC(=O)NC1CCCCC1
inactive: dose: 264.0 mg/kg/injection, schedule: Q01DX001 (ip), vehicle: carboxymethylcellulose (CMC) 101 % of control | dose: 400.0 mg/kg/injection, schedule: Q01DX001 (ip), vehicle: carboxymethylcellulose (CMC) 90 % of control | dose: 600.0 mg/kg/injection, schedule: Q01DX001 (ip), vehicle: carboxymethylcellulose (CMC) 98 % of control

N#CC(OS(=O)(=O)c1ccccc1)c1ccccc1 (centres undefined)
inactive: dose: 50.0 mg/kg/injection, schedule: Q01DX001 (ip), vehicle: other 89 % of control | dose: 100.0 mg/kg/injection, schedule: Q01DX001 (ip), vehicle: other 97 % of control | dose: 200.0 mg/kg/injection, schedule: Q01DX001 (ip), vehicle: other 105 % of control

CCC(=O)NC1=C(N2CC2)C(=O)C(NC(=O)CC)=C(N2CC2)C1=O
inactive: dose: 0.31 mg/kg/injection, schedule: Q01DX009 (ip), vehicle: Klucel (hydroxypropylcellulose) (HPC) 121 % of control | dose: 1.25 mg/kg/injection, schedule: Q01DX001 (ip), vehicle: saline with Tween-80 115 % of control | dose: 1.25 mg/kg/injection, schedule: Q01DX001 (ip), vehicle: saline 108 % of control | dose: 2.5 mg/kg/injection, schedule: Q01DX001 (ip), vehicle: saline 119 % of control | dose: 5.0 mg/kg/injection, schedule: Q01DX009 (ip), vehicle: Klucel (hydroxypropylcellulose) (HPC) 104 % of control | dose: 5.0 mg/kg/injection, schedule: Q01DX009 (ip), vehicle: saline 100 % of control | dose: 5.0 mg/kg/injection, schedule: Q04DX003 (ip), vehicle: Klucel (hydroxypropylcellulose) (HPC) 102 % of control | dose: 10.0 mg/kg/injection, schedule: Q01DX009 (ip), vehicle: saline 93 % of control | dose: 10.0 mg/kg/injection, schedule: Q04DX003 (ip), vehicle: Klucel (hydroxypropylcellulose) (HPC) 90 % of control
active: dose: 1.25 mg/kg/injection, schedule: Q01DX009 (ip), vehicle: Klucel (hydroxypropylcellulose) (HPC) 162 % of control | dose: 2.5 mg/kg/injection, schedule: Q04DX003 (ip), vehicle: Klucel (hydroxypropylcellulose) (HPC) 175 % of control | dose: 5.0 mg/kg/injection, schedule: Q01DX001 (ip), vehicle: saline with Tween-80 167 % of control | dose: 10.0 mg/kg/injection, schedule: Q01DX001 (ip), vehicle: saline with Tween-80 169 % of control

Cc1cccc(Cl)c1NC(=O)C(C)C
inactive: dose: 100.0 mg/kg/injection, schedule: Q01DX009 (ip), vehicle: other 101 % of control | dose: 200.0 mg/kg/injection, schedule: Q01DX009 (ip), vehicle: other 104 % of control | dose: 400.0 mg/kg/injection, schedule: Q01DX009 (ip), vehicle: other 98 % of control

CCOC(=O)NN(C(=O)OCC)C1COCCO1 (centres undefined)
inactive: dose: 50.0 mg/kg/injection, schedule: Q04DX002 (ip), vehicle: saline 98 % of control | dose: 100.0 mg/kg/injection, schedule: Q04DX002 (ip), vehicle: saline 103 % of control | dose: 200.0 mg/kg/injection, schedule: Q04DX002 (ip), vehicle: saline 103 % of control

C[C@H]1C[C@@H]2[C@H]([C@@H](O)C[C@@]3(C)[C@H]2CC[C@]3(O)C(=O)CF)[C@@]2(C)C=CC(=O)C=C12
inactive: dose: 62.0 mg/kg/injection, schedule: Q01DX015 (sc), vehicle: steriod suspending solution 97 % of control | dose: 100.0 mg/kg/injection, schedule: Q04DX003 (sc), vehicle: Klucel (hydroxypropylcellulose) (HPC) 101 % of control | dose: 125.0 mg/kg/injection, schedule: Q01DX015 (sc), vehicle: steriod suspending solution 94 % of control | dose: 200.0 mg/kg/injection, schedule: Q04DX003 (sc), vehicle: Klucel (hydroxypropylcellulose) (HPC) 102 % of control | dose: 250.0 mg/kg/injection, schedule: Q01DX015 (sc), vehicle: steriod suspending solution 102 % of control | dose: 400.0 mg/kg/injection, schedule: Q04DX003 (sc), vehicle: Klucel (hydroxypropylcellulose) (HPC) 115 % of control | dose: 500.0 mg/kg/injection, schedule: Q01DX015 (sc), vehicle: steriod suspending solution 102 % of control

CCCCCCCCNc1ccc(Cl)cc1
inactive: dose: 100.0 mg/kg/injection, schedule: Q01DX001 (ip), vehicle: saline + alcohol 91 % of control | dose: 200.0 mg/kg/injection, schedule: Q01DX001 (ip), vehicle: saline + alcohol 102 % of control | dose: 400.0 mg/kg/injection, schedule: Q01DX001 (ip), vehicle: saline + alcohol 98 % of control

CC(Cc1ccccc1)N(C)N (centres undefined)
inactive: dose: 1.56 mg/kg/injection, schedule: Q01DX009 (ip), vehicle: saline 94 % of control | dose: 3.12 mg/kg/injection, schedule: Q01DX009 (ip), vehicle: saline 102 % of control | dose: 6.25 mg/kg/injection, schedule: Q01DX009 (ip), vehicle: saline 91 % of control | dose: 12.5 mg/kg/injection, schedule: Q01DX009 (ip), vehicle: saline 88 % of control | dose: 25.0 mg/kg/injection, schedule: Q01DX009 (ip), vehicle: saline 102 % of control

CNC(=O)Nc1ccc(Cl)cc1
inactive: dose: 100.0 mg/kg/injection, schedule: Q01DX001 (ip), vehicle: Klucel (hydroxypropylcellulose) (HPC) 107 % of control | dose: 200.0 mg/kg/injection, schedule: Q01DX001 (ip), vehicle: Klucel (hydroxypropylcellulose) (HPC) 105 % of control | dose: 400.0 mg/kg/injection, schedule: Q01DX001 (ip), vehicle: Klucel (hydroxypropylcellulose) (HPC) 107 % of control

CN1C(=O)NC(C)(C)C1=O
inactive: dose: 100.0 mg/kg/injection, schedule: Q01DX001 (ip), vehicle: saline 99 % of control | dose: 200.0 mg/kg/injection, schedule: Q01DX001 (ip), vehicle: saline 97 % of control | dose: 400.0 mg/kg/injection, schedule: Q01DX001 (ip), vehicle: saline 94 % of control

COc1ccc(-n2c(=O)c(N=Nc3ccc(Cl)cc3)c(O)n(-c3ccccc3C)c2=S)cc1
inactive: dose: 37.5 mg/kg/injection, schedule: Q01DX001 (ip), vehicle: Klucel (hydroxypropylcellulose) (HPC) 96 % of control | dose: 75.0 mg/kg/injection, schedule: Q01DX001 (ip), vehicle: Klucel (hydroxypropylcellulose) (HPC) 90 % of control | dose: 150.0 mg/kg/injection, schedule: Q01DX001 (ip), vehicle: Klucel (hydroxypropylcellulose) (HPC) 92 % of control

Cc1c(Cl)ccc2c1S(=O)(=O)c1cccc(Cl)c1-2
inactive: dose: 100.0 mg/kg/injection, schedule: Q04DX002 (ip), vehicle: Klucel (hydroxypropylcellulose) (HPC) 104 % of control | dose: 200.0 mg/kg/injection, schedule: Q04DX002 (ip), vehicle: Klucel (hydroxypropylcellulose) (HPC) 96 % of control | dose: 400.0 mg/kg/injection, schedule: Q04DX002 (ip), vehicle: Klucel (hydroxypropylcellulose) (HPC) 100 % of control
